Peptide text beside a SMILES is read from it.
How the values were obtained:
[1] = cited from earlier work; for Solubility Xxx: free amino acid, CRC Handbook of Chemistry and Physics; for solubility: prior art values, background
[2] = Solubility found for Lys-Xxx dipeptides; details: as hydrochloride or as acetate (footnotes 6, 7)
[3] = system: antibody producing Chinese Hamster Ovary (CHO) cells (Subclone DG44); test: Experiment 3: cell growth (VCD) in TC-42 media, L-valine or L-isoleucine replaced by lysyl dipeptides; format: cell-based; design: Viable cell densities (VCD) / maximum cell densities (max VCD): unit: 10^6 cells/ml; details: for maximum cell densities (max VCD) / Viable cell densities (VCD): TC-42 media of table 6; for growth curve and maximum cell density compared with reference medium (FIG. 3): equimolar amounts
Source text: (§1) The influence of the L-lysine dipeptides on the growth of antibody producing Chinese Hamster Ovary (CHO) cells (Subclone DG44; Life Technologies Cooperation, Carslbad, USA) in comparison to media containing either the corresponding free amino acids or the corresponding L-alanine dipeptides was investigated. For this purpose, the cells were cultivated in a TC-42 media produced by Xell AG, Bielefeld, Germany in which the amino acids provided within the experiments by dipeptides were lacking. The concentrations of these amino acids were adjusted in such a way that, taking into account a complete hydrolysis of the dipeptides into the amino acids, the concentration of all amino acids were the same in all media tested within this experiment.
(§2) Starting from a preparatory culture an initial viable cell density (VCD) of 0.3·10^6 cells/ml was adjusted in shaking flasks by adding the test media. After 2-4 days a part of the cell culture was transferred into a new shaking flask and an initial viable cell density (VCD) of 0.3.10^6 cells/ml was adjusted by adding new test media. This was done two times and then the cell growth was followed by measuring the viable cell density (VCD) for up to 24 days.
Experiment 3: Comparison of the Cell Growths obtained with TC-42 media in which L-valine and L-isoleucine, respectively, are replaced by L-lysyl-L-valine and L-lysyl-L-isoleucine, respectively.
For this experiment a TC-42 media produced by Xell AG, Bielefeld, Germany in which L-lysine, L-valine and L-isoleucine were lacking was used. These amino acids and the dipeptides L-lysyl-L-valine and L-lysyl-L-isoleucine, respectively, were then added to the test media in the concentration listed in table 6.

[4] = system: antibody producing Chinese Hamster Ovary (CHO) cells (Subclone DG44); test: Experiment 1: cell growth (VCD) in TC-42 media, cysteine/cystine or leucine replaced by dipeptides; format: cell-based; design: Viable cell densities (VCD) / maximum cell densities (max. VCD): unit not given here
Source text: as §1, with “experiment. […] Experiment 1: Comparison of the Cell Growths Obtained with TC-42 media in which L-cysteine/L-cystine is replaced by bis-L-alanyl-L-cystine, bis-L-prolyl-L-cystine or bis-L-lysyl-L-cystine and L-leucine is replaced by […] For this experiment a TC-42 media produced by Xell AG, Bielefeld, Germany in which […]-cystine and L-leucine were deliberately left out of the initial formulation. […] [table]” for “experiment.”

[5] = system: antibody producing Chinese Hamster Ovary (CHO) cells (Subclone DG44); test: Experiment 2: cell growth (VCD) in TC-42 media, L-tyrosine replaced by dipeptides; format: cell-based; design: key to Viable cell densities (VCD) / maximum cell densities (max VCD): 10^6 cells/ml
Source text: as §1, §2
These amino acids and the dipeptides L-alanyl-L-tyrosine dihydrate and L-lysyl-L-tyrosine acetate, respectively, were then added to the test media in the concentration listed in table 4.

Compound: N[C@@H](CSSC[C@H](N)C(=O)O)C(=O)O [L-Cystine]
- Solubility Xxx [1]: 0.1 g/1000 g solution
- solubility [1]: 0.1 g/ltr

Compound: NCCCC[C@H](N)C(=O)N[C@@H](Cc1ccc(O)cc1)C(=O)O [Lys-Tyr, L-Lysyl-L-tyrosine acetate]
- Solubility Lys-Xxx found [2]: >330 ^7) g/1000 g solution

Compound: CC[C@H](C)[C@H](N)C(=O)O [L-Isoleucine]
- Solubility Xxx [1]: 39.6 g/1000 g solution

Compound: CC(C)[C@H](NC(=O)[C@@H](N)CCCCN)C(=O)O [Lys-Val, L-Lysyl-L-valine] (H-Lys-Val-OH)
- maximum cell densities (max VCD) [3]: 17.25
- Viable cell densities (VCD) ([3]; Time 0.0): 0.43
- Viable cell densities (VCD) ([3]; Time 2.8): 2.04
- Viable cell densities (VCD) ([3]; Time 3.0): 0.50
- Viable cell densities (VCD) ([3]; Time 6.8): 4.37
- Viable cell densities (VCD) ([3]; Time 6.9): 0.39
- Viable cell densities (VCD) ([3]; Time 7.9): 0.61
- Viable cell densities (VCD) ([3]; Time 8.8): 1.15
- Viable cell densities (VCD) ([3]; Time 9.8): 2.07
- Viable cell densities (VCD) ([3]; Time 10.8): 3.35
- Viable cell densities (VCD) ([3]; Time 11.8): 5.79
- Viable cell densities (VCD) ([3]; Time 12.9): 8.34
- Viable cell densities (VCD) ([3]; Time 13.8): 11.08
- Viable cell densities (VCD) ([3]; Time 14.8): 15.45
- Viable cell densities (VCD) ([3]; Time 15.9): 16.84
- Viable cell densities (VCD) ([3]; Time 16.9): 17.25
- Viable cell densities (VCD) ([3]; Time 17.9): 16.27
- Viable cell densities (VCD) ([3]; Time 18.8): 14.62
- growth curve and maximum cell density compared with reference medium (FIG. 3) [3]: almost matching those of the reference medium
- Solubility Lys-Xxx found [2]: >400 ^6) g/1000 g solution

Compound: CC[C@H](C)[C@H](NC(=O)[C@@H](N)CCCCN)C(=O)O [Lys-Ile, L-Lysyl-L-isoleucine]
- maximum cell densities (max VCD) [3]: 10.67
- Viable cell densities (VCD) ([3]; Time 0.0): 0.44
- Viable cell densities (VCD) ([3]; Time 2.8): 1.78
- Viable cell densities (VCD) ([3]; Time 3.0): 0.48
- Viable cell densities (VCD) ([3]; Time 6.8): 3.36
- Viable cell densities (VCD) ([3]; Time 6.9): 0.39
- Viable cell densities (VCD) ([3]; Time 7.9): 0.60
- Viable cell densities (VCD) ([3]; Time 8.8): 1.04
- Viable cell densities (VCD) ([3]; Time 9.8): 1.73
- Viable cell densities (VCD) ([3]; Time 10.8): 2.73
- Viable cell densities (VCD) ([3]; Time 11.8): 4.62
- Viable cell densities (VCD) ([3]; Time 12.9): 5.77
- Viable cell densities (VCD) ([3]; Time 13.8): 7.19
- Viable cell densities (VCD) ([3]; Time 14.8): 9.27
- Viable cell densities (VCD) ([3]; Time 15.9): 9.45
- Viable cell densities (VCD) ([3]; Time 16.9): 9.40
- Viable cell densities (VCD) ([3]; Time 17.9): 10.56
- Viable cell densities (VCD) ([3]; Time 18.8): 10.67
- Viable cell densities (VCD) ([3]; Time 19.8): 9.18
- Viable cell densities (VCD) ([3]; Time 21.0): 8.77
- growth curve and maximum cell density compared with reference medium (FIG. 3) [3]: a slower growth and a lower maximum cell density
- Solubility Lys-Xxx found [2]: >500 ^7) g/1000 g solution

Compound: CC(C)C[C@H](N)C(=O)O [L-Leucine]
- Solubility Xxx [1]: 23.7 g/1000 g solution

Compound: CC(C)[C@H](N)C(=O)O [L-Valine]
- Solubility Xxx [1]: 81.3 g/1000 g solution

Compound: Bis-L-prolyl-L-cystine [Pro2-Cyss, reference compound]
- maximum cell densities (max. VCD) ([4]; TC-42 media of table 2): 0.79
- Viable cell densities (VCD) ([4]; Time 0.0, TC-42 media of table 2): 0.31
- Viable cell densities (VCD) ([4]; Time 0.7, TC-42 media of table 2): 0.37
- Viable cell densities (VCD) ([4]; Time 2.0, TC-42 media of table 2): 0.32
- Viable cell densities (VCD) ([4]; Time 2.7, TC-42 media of table 2): 0.21
- Viable cell densities (VCD) ([4]; Time 3.6, TC-42 media of table 2): 0.18
- Viable cell densities (VCD) ([4]; Time 3.7, TC-42 media of table 2): 0.30
- Viable cell densities (VCD) ([4]; Time 4.7, TC-42 media of table 2): 0.24
- Viable cell densities (VCD) ([4]; Time 5.8, TC-42 media of table 2): 0.14
- Viable cell densities (VCD) ([4]; Time 6.7, TC-42 media of table 2): 0.08
- Viable cell densities (VCD) ([4]; Time 6.8, TC-42 media of table 2): 0.32
- Viable cell densities (VCD) ([4]; Time 7.8, TC-42 media of table 2): 0.43
- Viable cell densities (VCD) ([4]; Time 8.7, TC-42 media of table 2): 0.41
- Viable cell densities (VCD) ([4]; Time 9.7, TC-42 media of table 2): 0.34
- Viable cell densities (VCD) ([4]; Time 10.6, TC-42 media of table 2): 0.27
- Viable cell densities (VCD) ([4]; Time 11.6, TC-42 media of table 2): 0.79
- cell growth performance compared with reference medium (FIG. 1) ([4]; same molar amount of cysteine and cystine in the form of dipeptides): almost no growth

Compound: L-Alanyl-L-tyrosine × 2H2O [Ala-Tyr]
- Solubility Ala-Xxx ([1]; Degussa product brochure, cystine value WO 2011/133902): 15.3 g/1000 g solution
- solubility [1]: 8.7 g/ltr
- maximum cell densities (max VCD) ([5]; TC-42 media of table 4): 12.44
- Viable cell densities (VCD) ([5]; Time [d] 0.0, TC-42 media of table 4): 0.38
- Viable cell densities (VCD) ([5]; Time [d] 0.7, TC-42 media of table 4): 0.51
- Viable cell densities (VCD) ([5]; Time [d] 1.7, TC-42 media of table 4): 1.22
- Viable cell densities (VCD) ([5]; Time [d] 2.7, first entry, TC-42 media of table 4): 2.22
- Viable cell densities (VCD) ([5]; Time [d] 2.7, second entry (after transfer into new flask), TC-42 media of table 4): 0.35
- Viable cell densities (VCD) ([5]; Time [d] 4.0, TC-42 media of table 4): 0.77
- Viable cell densities (VCD) ([5]; Time [d] 4.9, TC-42 media of table 4): 1.59
- Viable cell densities (VCD) ([5]; Time [d] 5.7, TC-42 media of table 4): 1.93
- Viable cell densities (VCD) ([5]; Time [d] 6.7, first entry, TC-42 media of table 4): 2.82
- Viable cell densities (VCD) ([5]; Time [d] 6.7, second entry (after transfer into new flask), TC-42 media of table 4): 0.31
- Viable cell densities (VCD) ([5]; Time [d] 7.7, TC-42 media of table 4): 0.48
- Viable cell densities (VCD) ([5]; Time [d] 8.7, TC-42 media of table 4): 1.17
- Viable cell densities (VCD) ([5]; Time [d] 9.7, TC-42 media of table 4): 1.92
- Viable cell densities (VCD) ([5]; Time [d] 11.0, TC-42 media of table 4): 4.11
- Viable cell densities (VCD) ([5]; Time [d] 11.8, TC-42 media of table 4): 6.12
- Viable cell densities (VCD) ([5]; Time [d] 12.7, TC-42 media of table 4): 8.29
- Viable cell densities (VCD) ([5]; Time [d] 13.7, TC-42 media of table 4): 10.49
- Viable cell densities (VCD) ([5]; Time [d] 14.7, TC-42 media of table 4): 12.44
- Viable cell densities (VCD) ([5]; Time [d] 15.7, TC-42 media of table 4): 11.34
- Viable cell densities (VCD) ([5]; Time [d] 16.7, TC-42 media of table 4): 12.42
- Viable cell densities (VCD) ([5]; Time [d] 17.9, TC-42 media of table 4): 11.06
- Viable cell densities (VCD) ([5]; Time [d] 18.9, TC-42 media of table 4): 11.31
- Viable cell densities (VCD) ([5]; Time [d] 19.7, TC-42 media of table 4): 11.20
- Viable cell densities (VCD) ([5]; Time [d] 20.7, TC-42 media of table 4): 11.13
- Viable cell densities (VCD) ([5]; Time [d] 21.7, TC-42 media of table 4): 11.24
- growth curves compared with reference medium (FIG. 2) ([5]; equimolar amounts of tyrosine): no significant difference
- maximum cell density compared with reference medium ([5]; equimolar amounts of tyrosine): slightly higher values
